Data on 6 molecules can be found in US11116760B2 (Gilead Sciences, Inc., priority 2018, dated 2021).

The target of the first assay is α4β7 integrin (Homo sapiens (Human), UniProt P13612+P26010). The assay is described as follows: α4β7 Integrin Cell Capture Assay. In kind it is cell-based. To be noted: Table 1; capture of α4β7 expressing RPM18866 cells on MadCAM-1 extracellular domain-coated plate.
Sequence of α4β7 integrin (P13612 34-1032): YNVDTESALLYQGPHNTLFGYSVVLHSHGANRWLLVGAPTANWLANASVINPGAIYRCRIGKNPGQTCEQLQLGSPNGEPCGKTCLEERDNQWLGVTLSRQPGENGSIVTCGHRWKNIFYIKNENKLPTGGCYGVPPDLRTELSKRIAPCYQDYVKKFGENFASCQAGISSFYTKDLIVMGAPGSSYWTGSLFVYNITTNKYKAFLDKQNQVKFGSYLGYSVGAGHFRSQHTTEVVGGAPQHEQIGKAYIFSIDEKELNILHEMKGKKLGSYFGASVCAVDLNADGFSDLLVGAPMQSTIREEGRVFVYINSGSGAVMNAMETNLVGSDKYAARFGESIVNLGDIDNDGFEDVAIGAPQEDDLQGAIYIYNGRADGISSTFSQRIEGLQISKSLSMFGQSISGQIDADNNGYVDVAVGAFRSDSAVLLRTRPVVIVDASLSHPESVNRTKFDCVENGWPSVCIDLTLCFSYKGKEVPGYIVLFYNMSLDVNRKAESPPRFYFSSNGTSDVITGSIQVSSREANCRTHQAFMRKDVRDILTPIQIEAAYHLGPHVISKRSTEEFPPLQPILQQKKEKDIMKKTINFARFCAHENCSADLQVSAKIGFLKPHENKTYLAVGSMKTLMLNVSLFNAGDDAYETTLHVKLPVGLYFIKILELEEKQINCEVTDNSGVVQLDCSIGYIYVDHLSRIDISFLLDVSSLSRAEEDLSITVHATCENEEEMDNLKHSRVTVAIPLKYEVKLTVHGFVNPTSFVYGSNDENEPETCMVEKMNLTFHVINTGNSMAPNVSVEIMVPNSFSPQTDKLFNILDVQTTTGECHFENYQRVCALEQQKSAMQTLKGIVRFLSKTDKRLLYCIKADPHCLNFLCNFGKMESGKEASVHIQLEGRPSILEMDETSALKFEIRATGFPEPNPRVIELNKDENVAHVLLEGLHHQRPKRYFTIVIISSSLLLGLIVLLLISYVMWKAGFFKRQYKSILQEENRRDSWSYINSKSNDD
Sequence of α4β7 integrin (P26010 20-798): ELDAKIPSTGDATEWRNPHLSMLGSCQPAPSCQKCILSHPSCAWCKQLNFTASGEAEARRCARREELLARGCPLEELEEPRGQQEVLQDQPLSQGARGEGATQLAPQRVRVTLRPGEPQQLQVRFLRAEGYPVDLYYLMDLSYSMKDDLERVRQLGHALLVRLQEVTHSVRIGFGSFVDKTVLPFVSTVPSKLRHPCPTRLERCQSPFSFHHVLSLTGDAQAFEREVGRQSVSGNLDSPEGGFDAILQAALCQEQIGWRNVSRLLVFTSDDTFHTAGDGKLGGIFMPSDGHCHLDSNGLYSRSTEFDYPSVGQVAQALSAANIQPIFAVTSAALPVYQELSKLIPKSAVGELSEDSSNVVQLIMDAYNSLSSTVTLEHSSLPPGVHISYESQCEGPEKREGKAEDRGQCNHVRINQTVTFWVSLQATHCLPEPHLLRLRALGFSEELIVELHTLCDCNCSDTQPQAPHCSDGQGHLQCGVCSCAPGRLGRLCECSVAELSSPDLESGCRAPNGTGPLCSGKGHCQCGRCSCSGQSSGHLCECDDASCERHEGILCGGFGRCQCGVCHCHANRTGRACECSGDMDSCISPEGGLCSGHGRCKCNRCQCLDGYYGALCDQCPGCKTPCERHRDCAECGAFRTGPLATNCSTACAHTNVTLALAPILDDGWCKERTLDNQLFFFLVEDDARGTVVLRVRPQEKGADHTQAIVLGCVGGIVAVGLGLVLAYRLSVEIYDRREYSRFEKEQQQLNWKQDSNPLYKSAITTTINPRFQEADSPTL
Regarding `N#Cc1ccc(-c2ccc(C[C@H](NC(=O)c3c(F)cc(N[C@H](C4CC4)C(F)(F)F)cc3F)C(=O)O)c3cccnc23)c(Cl)c1` [Example 90], the EC50 was 11.3 nM. `CC[C@@H](N(C)c1cc(F)c(C(=O)N[C@@H](Cc2ccc(-c3c(C(F)(F)F)cc(C)n(C)c3=O)c3ncccc23)C(=O)O)c(F)c1)C(F)(F)F` [Example 135, (S)-2-(2,6-difluoro-4-(methyl((R)-1,1,1-trifluorobutan-2-yl)amino)benzamido)-3-(8-(1,6-dimethyl-2-oxo-4-(trifluoromethyl)-1,2-dihydropyridin-3-yl)quinolin-5-yl)propanoic acid] gave an EC50 of 0.4 nM. This EC50 lies about 28-fold lower than the previous one.

Staying with this assay, now noted: Table 2; capture of α4β7 expressing RPM18866 cells on MadCAM-1 extracellular domain-coated plate.
For `CC[C@@H](Nc1cc(F)c(C(=O)N[C@@H](Cc2ccc(-c3c(C)n(C)c(=O)n(C)c3=O)c3ncccc23)C(=O)O)c(F)c1)C(F)(F)F` (atropisomer, axis not shown) [Example 234], the EC50 was determined as 2.3 nM. As to `CC[C@@H](Nc1cc(F)c(C(=O)N[C@@H](Cc2ccc(-c3cc(N(C)C)c(C)n(C)c3=O)c3ncccc23)C(=O)O)c(F)c1)C(F)(F)F` [Example 268], the response was half-maximal at 4.3 nM (EC50). `O=C(N[C@@H](Cc1ccc(-c2c(C(F)(F)F)cc3n(c2=O)CCC3)c2ncccc12)C(=O)O)c1c(Cl)cccc1Cl` [Example 308] came in with an EC50 of 11.9 nM.

As for `CCOc1ccnc(-c2ccc(C[C@H](NC(=O)c3c(F)cc(N4CCOC[C@@H]4C(F)(F)F)cc3F)C(=O)O)c3cccnc23)c1C(F)(F)F` [Example 193], the EC50 worked out at 1.4 nM. Against the preceding molecule, the EC50 is about 8.5-fold lower.

The term EC50 denotes the concentration needed to bring the measured effect to its halfway point. Low readings indicate an effect from little substance, high ones a need for much substance.
